From BigSolDB 2.1

Cn1nccc1O
solubility (mole fraction)
Details | 278.15 K | 283.15 K | 288.15 K | 293.15 K | 298.15 K | 303.15 K | 308.15 K | 313.15 K | 318.15 K
in ethanol | 0.0822 | 0.0959 | 0.112 | 0.129 | 0.149 | 0.171 | 0.194 | 0.216 | 0.247
in ethyl acetate | 0.000394 | 0.000668 | 0.00119 | 0.00222 | 0.00348 | 0.00603 | 0.00922 | 0.0154 | 0.0245
in isobutanol | 0.1 | 0.118 | 0.138 | 0.161 | 0.183 | 0.208 | 0.242 | 0.272 | 0.308
in isopropanol | 0.079 | 0.0911 | 0.106 | 0.122 | 0.141 | 0.162 | 0.186 | 0.209 | 0.24
in methanol | 0.0905 | 0.107 | 0.126 | 0.146 | 0.172 | 0.201 | 0.234 | 0.266 | 0.308
in methyl acetate | 0.00741 | 0.00888 | 0.0109 | 0.0128 | 0.0156 | 0.0187 | 0.0217 | 0.0258 | 0.0312
in n-butanol | 0.0789 | 0.09 | 0.105 | 0.121 | 0.139 | 0.159 | 0.177 | 0.2 | 0.231
in n-butyl acetate | 0.000681 | 0.00102 | 0.00149 | 0.00216 | 0.00302 | 0.00433 | 0.00601 | 0.00846 | 0.0125
in n-pentyl acetate | 0.00428 | 0.00553 | 0.00705 | 0.0087 | 0.011 | 0.0138 | 0.0169 | 0.0201 | 0.0261
in n-propanol | 0.0801 | 0.0922 | 0.109 | 0.127 | 0.143 | 0.165 | 0.185 | 0.211 | 0.245
in n-propyl acetate | 0.000277 | 0.0005 | 0.000774 | 0.00138 | 0.00218 | 0.0032 | 0.00511 | 0.00843 | 0.0124
in sec-butanol | 0.0889 | 0.101 | 0.117 | 0.135 | 0.154 | 0.173 | 0.195 | 0.219 | 0.251
